Earlier results, collected in patent publication US20250207102A1, “METHODS FOR CO-CULTURING GENOTOXIC BACTERIA AND ORGANOIDS” (priority 2022, published 2025).

Cc1cccc(-c2nn(C(=S)Nc3ccccc3)cc2-c2ccnc3ccccc23)n1 [A83-01]
phosphorylation of Smad2 (Smad2): blocks phosphorylation of Smad2 | inhibition of ALK-1,-2,-3,-6 and MAPK activity (ALK-1,-2,-3,-6 and MAPK): only weakly inhibits
